8 compounds from patent US20210070748A1, “INHIBITORS OF BRUTONS TYROSINE KINASE” (Pharmacyclics LLC, priority 2015, published 2021) can be followed below.

What all share (assay type): biochemical
The target of assay [1] is T1, JAK3 (Homo sapiens, UniProt P52333).
T1 sequence (P52333 1-1124): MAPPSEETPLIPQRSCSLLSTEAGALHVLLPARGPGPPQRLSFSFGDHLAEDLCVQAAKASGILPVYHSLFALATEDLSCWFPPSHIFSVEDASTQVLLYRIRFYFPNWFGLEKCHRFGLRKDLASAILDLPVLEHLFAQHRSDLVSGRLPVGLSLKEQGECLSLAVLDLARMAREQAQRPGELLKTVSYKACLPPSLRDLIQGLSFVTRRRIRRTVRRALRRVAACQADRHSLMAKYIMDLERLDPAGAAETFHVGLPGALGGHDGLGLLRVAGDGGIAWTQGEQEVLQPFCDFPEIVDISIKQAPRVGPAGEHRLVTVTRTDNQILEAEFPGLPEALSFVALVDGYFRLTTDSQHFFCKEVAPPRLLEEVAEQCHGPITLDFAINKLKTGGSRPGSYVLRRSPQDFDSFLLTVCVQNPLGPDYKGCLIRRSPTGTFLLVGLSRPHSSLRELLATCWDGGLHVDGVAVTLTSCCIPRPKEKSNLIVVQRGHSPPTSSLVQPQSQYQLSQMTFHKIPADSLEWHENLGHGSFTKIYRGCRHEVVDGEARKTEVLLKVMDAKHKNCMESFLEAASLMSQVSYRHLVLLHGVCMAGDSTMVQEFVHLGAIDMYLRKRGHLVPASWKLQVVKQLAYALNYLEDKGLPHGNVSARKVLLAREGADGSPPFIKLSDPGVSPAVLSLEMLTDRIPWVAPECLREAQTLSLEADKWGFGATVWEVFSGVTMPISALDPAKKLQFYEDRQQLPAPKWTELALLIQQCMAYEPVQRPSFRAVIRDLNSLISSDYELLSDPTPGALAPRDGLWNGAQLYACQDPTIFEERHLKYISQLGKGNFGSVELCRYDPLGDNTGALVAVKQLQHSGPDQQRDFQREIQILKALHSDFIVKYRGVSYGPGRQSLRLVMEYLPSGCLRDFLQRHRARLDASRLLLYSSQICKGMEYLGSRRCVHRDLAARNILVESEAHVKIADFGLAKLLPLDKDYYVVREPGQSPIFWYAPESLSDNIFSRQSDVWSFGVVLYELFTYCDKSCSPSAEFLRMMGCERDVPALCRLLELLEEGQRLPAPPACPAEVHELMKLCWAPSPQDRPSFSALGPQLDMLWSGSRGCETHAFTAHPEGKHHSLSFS
Description: Inhibition of a panel of kinases, in vitro HotSpot kinase assay: JAK3. As to conditions: read-out: IC50 JAK3.

Assay [2] addresses EGFR (Homo sapiens, UniProt P00533). Description: Inhibition of a panel of kinases, in vitro HotSpot kinase assay: EGFR. The procedure: (§1) The degree of inhibition of a panel of kinases is determined using the in vitro HotSpot kinase assay (purified enzymes, ^33P-ATP, an appropriate substrate and 1 μM ATP).
Assay [3] deals with SRC (Homo sapiens, UniProt P12931). Description: Inhibition of a panel of kinases, in vitro HotSpot kinase assay: SRC. The procedure:
as §1

The target of assay [4] is T2, TEC (Homo sapiens, UniProt P42680).
T2 sequence (P42680 1-631): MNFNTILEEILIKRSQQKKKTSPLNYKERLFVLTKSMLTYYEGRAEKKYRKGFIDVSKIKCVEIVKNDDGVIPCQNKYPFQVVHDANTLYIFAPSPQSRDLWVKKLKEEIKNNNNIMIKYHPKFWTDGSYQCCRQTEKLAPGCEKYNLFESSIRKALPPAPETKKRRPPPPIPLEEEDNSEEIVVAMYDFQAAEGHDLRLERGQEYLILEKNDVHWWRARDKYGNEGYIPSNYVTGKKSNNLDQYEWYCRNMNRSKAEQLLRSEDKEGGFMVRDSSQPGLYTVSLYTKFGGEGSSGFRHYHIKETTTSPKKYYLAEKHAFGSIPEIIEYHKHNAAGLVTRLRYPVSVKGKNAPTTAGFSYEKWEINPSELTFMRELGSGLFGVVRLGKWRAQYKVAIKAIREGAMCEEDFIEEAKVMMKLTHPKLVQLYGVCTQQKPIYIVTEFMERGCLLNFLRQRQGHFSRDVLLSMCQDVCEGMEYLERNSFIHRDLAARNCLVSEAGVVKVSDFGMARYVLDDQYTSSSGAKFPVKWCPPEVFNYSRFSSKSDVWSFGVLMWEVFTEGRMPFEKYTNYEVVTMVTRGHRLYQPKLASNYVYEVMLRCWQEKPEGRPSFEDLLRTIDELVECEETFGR
Description: Inhibition of a panel of kinases, in vitro HotSpot kinase assay: TEC. The procedure:
as §1

The mark [5] stands for this setting: Table 13, A compounds, 1 μM ATP.

In general, IC50 refers to the concentration needed to halve the response being measured.

Read-outs that look alike come from different tables or passages of the source.

Sequence of EGFR (P00533 25-1210): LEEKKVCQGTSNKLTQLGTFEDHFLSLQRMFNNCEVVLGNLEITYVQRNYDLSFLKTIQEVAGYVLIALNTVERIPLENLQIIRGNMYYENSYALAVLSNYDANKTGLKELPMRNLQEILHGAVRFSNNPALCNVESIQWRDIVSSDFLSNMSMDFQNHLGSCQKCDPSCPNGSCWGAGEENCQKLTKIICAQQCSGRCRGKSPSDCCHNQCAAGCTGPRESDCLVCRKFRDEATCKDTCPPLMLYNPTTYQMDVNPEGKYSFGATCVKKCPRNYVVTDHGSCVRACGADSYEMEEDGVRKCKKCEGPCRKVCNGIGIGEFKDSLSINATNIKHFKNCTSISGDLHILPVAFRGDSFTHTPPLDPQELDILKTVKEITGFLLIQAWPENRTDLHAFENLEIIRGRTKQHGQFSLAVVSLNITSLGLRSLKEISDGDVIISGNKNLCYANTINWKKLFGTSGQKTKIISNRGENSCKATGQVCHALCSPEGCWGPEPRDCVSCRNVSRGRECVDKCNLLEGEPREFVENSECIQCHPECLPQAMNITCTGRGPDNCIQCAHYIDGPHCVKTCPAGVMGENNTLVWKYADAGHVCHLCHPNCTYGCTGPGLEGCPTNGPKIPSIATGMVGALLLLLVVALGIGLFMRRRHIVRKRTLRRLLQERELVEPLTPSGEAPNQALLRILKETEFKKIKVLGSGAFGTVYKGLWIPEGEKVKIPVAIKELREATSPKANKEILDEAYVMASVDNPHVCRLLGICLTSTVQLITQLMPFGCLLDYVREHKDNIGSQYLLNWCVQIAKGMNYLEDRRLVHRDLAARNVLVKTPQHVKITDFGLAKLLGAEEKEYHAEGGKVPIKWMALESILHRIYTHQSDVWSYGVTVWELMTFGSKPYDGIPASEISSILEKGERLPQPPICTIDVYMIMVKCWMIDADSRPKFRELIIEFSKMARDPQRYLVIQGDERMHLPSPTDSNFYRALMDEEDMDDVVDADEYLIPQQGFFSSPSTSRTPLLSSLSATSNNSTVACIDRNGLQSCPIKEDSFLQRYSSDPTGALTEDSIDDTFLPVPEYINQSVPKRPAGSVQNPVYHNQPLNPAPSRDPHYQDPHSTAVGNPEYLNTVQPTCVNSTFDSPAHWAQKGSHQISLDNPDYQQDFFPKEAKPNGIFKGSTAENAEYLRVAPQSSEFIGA
Sequence of SRC (P12931 whole entry): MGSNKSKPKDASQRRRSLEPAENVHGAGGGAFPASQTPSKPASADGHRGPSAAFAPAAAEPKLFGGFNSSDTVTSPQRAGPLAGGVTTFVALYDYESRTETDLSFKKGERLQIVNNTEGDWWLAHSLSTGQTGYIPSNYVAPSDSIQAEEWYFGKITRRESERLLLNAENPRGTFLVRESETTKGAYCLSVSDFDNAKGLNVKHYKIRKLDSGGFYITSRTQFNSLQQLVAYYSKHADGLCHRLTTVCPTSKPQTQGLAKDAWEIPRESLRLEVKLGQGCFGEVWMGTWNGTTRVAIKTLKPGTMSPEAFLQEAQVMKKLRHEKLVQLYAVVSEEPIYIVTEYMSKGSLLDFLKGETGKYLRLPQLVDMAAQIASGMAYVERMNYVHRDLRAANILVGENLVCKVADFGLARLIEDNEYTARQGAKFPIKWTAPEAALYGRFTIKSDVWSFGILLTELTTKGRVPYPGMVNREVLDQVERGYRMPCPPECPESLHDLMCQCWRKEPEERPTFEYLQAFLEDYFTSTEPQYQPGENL

With `Cc1cc(C(=O)N[C@@H]2CCCN(c3cnc(C(N)=O)c(Nc4cnn(C)c4)n3)[C@@H]2C)ccc1C(C)(C)O` [Example E-152, 5-((2R,3R)-3-(4-(2-hydroxypropan-2-yl)-3-methylbenzamido)-2-methylpiperidin-1-yl)-3-((1-methyl-1H-pyrazol-4-yl)amino)pyrazine-2-carboxamide], the IC50 in assay [1] (E compounds, Table 17) was 100 to 1000 nM; in assay [2] (E compounds, Table 17) it was 1000 to 10000 nM; in assay [3] (E compounds, Table 17), 10 to 100 nM; in assay [4] (E compounds, Table 17), no more than 10 nM.
On to `C[C@@H]1[C@H](NC(=O)c2ccc(C(C)(C)N3CCCC3)cc2)CCCN1c1cnc(C(N)=O)c(Nc2cnn(C)c2)n1` [Example E-143, 3-((1-methyl-1H-pyrazol-4-yl)amino)-5-((2R,3R)-2-methyl-3-(4-(2-(pyrrolidin-1-yl)propan-2-yl)benzamido)piperidin-1-yl)pyrazine-2-carboxamide], for which the IC50 in assay [1] (E compounds, Table 17) was 100 to 1000 nM; in assay [2] (E compounds, Table 17) it was greater than 10000 nM; in assay [3] (E compounds, Table 17), 10 to 100 nM; in assay [4] (E compounds, Table 17) it was no more than 10 nM.
The corresponding values for `Cc1nc(-c2ccc(C(=O)N[C@@H]3CCCN(c4cnc(C(N)=O)c(Nc5cnn(C)c5)n4)[C@@H]3C)cc2)cs1` [Example E-155, 3-((1-methyl-1H-pyrazol-4-yl)amino)-5-((2R,3R)-2-methyl-3-(4-(2-methylthiazol-4-yl)benzamido)piperidin-1-yl)pyrazine-2-carboxamide] are 100 to 1000 nM, 100 to 1000 nM, 10 to 100 nM and no more than 10 nM.
For the compound `C[C@@H]1[C@H](NC(=O)c2ccc(C3CC3)cc2)CCCN1c1cnc(C(N)=O)c(Nc2cnn(C)c2)n1` [Example A-169, 5-[(2R,3R)-3-(4-cyclopropylbenzamido)-2-methylpiperidin-1-yl]-3-[(1-methyl-1H-pyrazol-4-yl)amino]pyrazine-2-carboxamide], the IC50 in assay [1] (setting [5]) lay in the range of 1000 to 10000 nM; in assay [2] (setting [5]), 1000 to 10000 nM; in assay [3] (setting [5]) it was 100 to 1000 nM; in assay [4] (setting [5]), 10 to 100 nM.
As for `C[C@@H]1[C@H](NC(=O)c2ccc(C(C)(C)O)cc2)CCCN1c1cnc(C(N)=O)c(Nc2ccc(C3(C)CCN(C4CC4)CC3)cc2)n1` [Example E-147, 3-((4-(1-cyclopropyl-4-methylpiperidin-4-yl)phenyl)amino)-5-((2R,3R)-3-(4-(2-hydroxypropan-2-yl)benzamido)-2-methylpiperidin-1-yl)pyrazine-2-carboxamide], the half-inhibitory concentration (IC50) in assay [1] (E compounds, Table 17) is 100 to 1000 nM; in assay [2] (E compounds, Table 17), 100 to 1000 nM; in assay [3] (E compounds, Table 17), no more than 10 nM; in assay [4] (E compounds, Table 17) it was no more than 10 nM.
In the case of `C[C@@H]1[C@H](n2ccc3cc(C4CC4)ccc3c2=O)CCCN1c1cnc(C(N)=O)c(Nc2ccc(N3CCN(C)CC3)cc2)n1` [Example A-140, 5-[(2R,3R)-3-(6-cyclopropyl-1-oxo-1,2-dihydro-isoquinolin-2-yl)-2-methylpiperidin-1-yl]-3-{[4-(4-methylpiperazin-1-yl)phenyl]amino}pyrazine-2-carboxamide], the IC50 was in the range of 1000 to 10000 nM in assay [1] (setting [5]), 100 to 1000 nM in assay [2] (setting [5]), 10 to 100 nM in assay [3] (setting [5]) and 10 to 100 nM in assay [4] (setting [5]).
As to `C[C@@H]1[C@H](NC(=O)c2ccc(C3CC3)cc2F)CCCN1c1cnc(C(N)=O)c(Nc2cnn(C)c2)n1` [Example A-110, 5-[(2R,3R)-3-(4-cyclopropyl-2-fluorobenzamido)-2-methylpiperidin-1-yl]-3-[(1-methyl-1H-pyrazol-4-yl)amino]pyrazine-2-carboxamide], the IC50 in assay [1] (setting [5]) is 1000 to 10000 nM; in assay [2] (setting [5]) it was 1000 to 10000 nM; in assay [3] (setting [5]), 100 to 1000 nM; in assay [4] (setting [5]), 10 to 100 nM.
As for `CC1(c2ccc(Nc3nc(N4CCC[C@@H](n5ccc6cc(C7CC7)ccc6c5=O)C4)cnc3C(N)=O)cc2)CCN(C2CCCC2)CC1` [Example A-141, 3-{[4-(1-cyclopentyl-4-methylpiperidin-4-yl)phenyl]amino}-5-[(3R)-3-(6-cyclopropyl-1-oxo-1,2-dihydroisoquinolin-2-yl)piperidin-1-yl]pyrazine-2-carboxamide], the half-maximal inhibitory concentration (IC50) is 100 to 1000 nM in assay [1] (setting [5]), 100 to 1000 nM in assay [2] (setting [5]), 10 to 100 nM in assay [3] (setting [5]) and no more than 10 nM in assay [4] (setting [5]).
